The text below walks through data of US12544364B2, “Use of a phosphodiesterase 10 inhibitor for the treatment of tourette syndrome” (Noema Pharma AG, priority 2020, dated 2026).

Format in all cases: physicochemical
A short description of series [1]: Preliminary solid state stability, UPLC analysis after storage. As to the method:
(§1) Stability: Preliminary forced degradation study of the crystalline form of the free base of the compound of Formula I in acidic, basic, oxidative, and photolytic stress conditions was conducted to investigate the viability of the crystalline form in various stress conditions. Since the solubility of the compound of Formula I was low in the standard solvent ethanol, ethanol was replaced by N-methyl-2-pyrrolidone (NMP).
A defined amount of the crystalline form of the free base of the compound of Formula I (0.2-0.8 mg) was weighed into a 1.8 mL HPLC vial and stored open (75% RH) or closed (ambient) at the temperature and the time indicated. After incubation, compound was dissolved in 1-1.5 mL NMP to a final concentration of 0.2-0.5 mg/mL and submitted to UPLC analysis (254 nm).

The nature of series [2]: Thermodynamic stability of the crystalline form. The settings on record: at least between 20° C. and 60° C. The source says: The XRPD pattern can be obtained by following protocols known in the field.
Series [3] is described as follows: Solubility of the crystalline form in aqueous media, simulated fluids and organic solvents. As to conditions: in the presence of surfactants (e.g., Tween-80, sodium dodecyl sulfate, dioctyl sulfosuccinate, Pluronic F68) and cyclodextrins. The method, then: Solubility in simulated gastric fluid (SGF), fasted state simulated intestinal fluid (FaSSIF), and fed state simulated intestinal fluid (FeSSIF) was 0.019 mg/ml, 0.006 mg/mL, and 0.022 mg/mL, respectively. Solubility increased 50-100-fold in the presence of surfactants (e.g., Tween-80, sodium dodecyl sulfate, dioctyl sulfosuccinate, or Pluronic F68) and cyclodextrins; however it was still rather low.

A short description of series [4]: Stability in suspension vehicle and parenteral formulation. As to conditions: 0.5% HPC/1% Tween 80, up to 5 weeks at RT. As to the method: For parenteral administration, a 30% Kleptose formulation (1.5 mg/ml, physiologic osmolality, pH 6.2), with a stability of at least 4 weeks at 40° C. was developed.
Series [5] is described as follows: Preliminary forced degradation study (acidic, basic, oxidative, photolytic stress) and excipient compatibility. The method, then:
as §1
The crystalline form of the free base of the compound of Formula I was stable for up to 8 days in solid state at 80° C. and in solution at pH 3 to pH 7 at RT. […] The crystalline form was stable after exposure to light in solid state.

`Cn1ncc(C(=O)N2CCOCC2)c1C(=O)Nc1ccn2nc(-c3ccccc3)nc2c1` [1-methyl-4-(morpholine-4-carbonyl)-N-(2-phenyl[1,2,4]triazolo[1,5-a]pyridin-7-yl)-1H-pyrazole-5-carboxamide] displayed a Degradation products in series [1] (solid state at various temperatures) below 0.5%. Also, the “UPLC analysis (Area % main peak)” value in series [1] (solid state, 4 w, 4° C.) is on record as 100 Area %; in series [1] (solid state, 4 w, 40° C.), 100 Area %; in series [1] (solid state, 4 w, 40° C., 75% RH), 100 Area %; in series [1] (solid state, 4 w, 60° C.) it was 100 Area %; in series [1] (solid state, 4 w, RT), 100 Area %; in series [1] (solid state, 1 h, 80° C.) it was 100 Area %. Further, the “UPLC analysis (Area % main peak)” value is listed as 100 Area % in series [1] (solid state, 1 d, 80° C.) and 100 Area % in series [1] (solid state, 8 d, 80° C.). Also, the “Time stable in solid state” value in series [1] (solid state, 40-60° C.) is “at least 4 weeks”. The Thermodynamic stability entry in series [2] was “thermodynamically stable”. Besides, in series [3], the Solubility increase was 50-100 fold. For the same compound, the “Particle growth and hydrate formation in suspension vehicle” value in series [4] is “only minor particle growth and no hydrate formation”. Also, in series [4], the “Stability in suspension vehicle” value is “stable”. In addition, the “Excipient compatibility (CompaS assay)” value in series [5] is “compatible with almost all excipients”. Besides, the Stability towards oxidation entry in series [5] (1 day) is reported as “stable”; in series [5] (prolonged exposure), “some sensitivity”. The Stability towards daylight result in series [5] (in solution) was “stable”. Further, in series [5] (in solution at pH 3 to pH 7 at RT, up to 8 days), the Stability in solution result is recorded as “stable”. Also, the “Stability in solution at higher or lower pH” value in series [5] (in solution, pH higher than 7 or lower than 3) was “degradation was observed”. The “Stability in the Suntest” value in series [5] (in solution, time dependent) is listed as “moderately stable to unstable”. Besides, the “Stability after exposure to light” value in series [5] (solid state) is given as “stable”. Besides, the “Stability in solid state” value in series [5] (solid state at 80° C., up to 8 days) is “stable”.
